In ChEMBL document CHEMBL5390291, “Glutathione-responsive PROTAC for targeted degradation of ERα in breast cancer cells” (Bioorg Med Chem, 2023):
Activity calls are given as the source filed them. No cut-off for these calls is given here.

Legend:
[1] = target: T1, von Hippel-Lindau disease tumor suppressor/Estrogen receptor (Homo sapiens, UniProt P03372+P40337); experiment: PROTAC activity at VHL/ER-alpha in human MCF7 cells assessed as ERalpha degradation incubated for 12 hrs by Western blot analysis; format: cell-based
[2] = target: T1, von Hippel-Lindau disease tumor suppressor/Estrogen receptor; experiment: PROTAC activity at VHL/ER-alpha in human MCF7 cells assessed as ERalpha degradation at 2 uM incubated for 1 hr by Western blot analysis relative to control; format: cell-based
Target sequence in this assay (P03372 whole entry, looked up): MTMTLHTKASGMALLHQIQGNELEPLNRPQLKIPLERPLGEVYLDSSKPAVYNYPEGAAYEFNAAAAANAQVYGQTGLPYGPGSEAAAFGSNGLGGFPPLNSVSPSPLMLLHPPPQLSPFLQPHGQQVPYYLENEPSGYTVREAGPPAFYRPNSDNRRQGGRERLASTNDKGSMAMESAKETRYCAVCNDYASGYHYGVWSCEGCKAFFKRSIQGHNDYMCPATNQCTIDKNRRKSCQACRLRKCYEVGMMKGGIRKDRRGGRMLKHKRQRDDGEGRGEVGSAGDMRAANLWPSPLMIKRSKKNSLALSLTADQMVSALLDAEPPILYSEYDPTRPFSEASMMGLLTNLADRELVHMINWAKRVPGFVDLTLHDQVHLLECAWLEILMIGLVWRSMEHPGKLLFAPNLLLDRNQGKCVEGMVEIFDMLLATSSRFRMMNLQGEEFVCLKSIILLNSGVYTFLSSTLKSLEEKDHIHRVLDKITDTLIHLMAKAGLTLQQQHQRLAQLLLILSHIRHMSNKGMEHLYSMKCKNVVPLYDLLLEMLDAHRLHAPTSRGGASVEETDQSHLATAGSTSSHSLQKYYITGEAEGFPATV
Target sequence in this assay (P40337 whole entry, looked up): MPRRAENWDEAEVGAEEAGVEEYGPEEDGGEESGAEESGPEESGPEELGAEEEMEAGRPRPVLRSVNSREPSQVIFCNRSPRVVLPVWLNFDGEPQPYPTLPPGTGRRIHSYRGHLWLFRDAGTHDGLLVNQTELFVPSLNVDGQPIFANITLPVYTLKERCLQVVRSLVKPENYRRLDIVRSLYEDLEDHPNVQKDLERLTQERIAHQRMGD

[3] = target: T1, von Hippel-Lindau disease tumor suppressor/Estrogen receptor; experiment: PROTAC activity at VHL/GFP-tagged ER-alpha in human A549 cells assessed as ERalpha degradation by Western blot analysis; format: cell-based
Target sequence in this assay (P03372 whole entry, looked up): as the sequence (P03372 whole entry, looked up) above
Target sequence in this assay (P40337 whole entry, looked up): as the sequence (P40337 whole entry, looked up) above

[4] = target: T1, von Hippel-Lindau disease tumor suppressor/Estrogen receptor; experiment: PROTAC activity at VHL/3 Flag-tagged ER-alpha in human A549 cells assessed as ERalpha degradation incubated for 12 hrs by Western blot analysis; format: cell-based; settings: dose 0.5-10 µM
Target sequence in this assay (P03372 whole entry, looked up): as the sequence (P03372 whole entry, looked up) above
Target sequence in this assay (P40337 whole entry, looked up): as the sequence (P40337 whole entry, looked up) above

[5] = target: T1, von Hippel-Lindau disease tumor suppressor/Estrogen receptor; experiment: PROTAC activity at VHL/3 Flag-tagged ER-alpha in human NCI-H1299 cells assessed as ERalpha degradation incubated for 12 hrs by Western blot analysis; format: cell-based; settings: dose 0.5-10 µM
Target sequence in this assay (P03372 whole entry, looked up): as the sequence (P03372 whole entry, looked up) above
Target sequence in this assay (P40337 whole entry, looked up): as the sequence (P40337 whole entry, looked up) above

[6] = target: T1, von Hippel-Lindau disease tumor suppressor/Estrogen receptor; experiment: PROTAC activity at VHL/3 Flag-tagged ER-alpha in HBE cells assessed as ERalpha degradation incubated for 12 hrs by Western blot analysis; format: cell-based; settings: dose 0.5-10 µM
Target sequence in this assay (P03372 whole entry, looked up): as the sequence (P03372 whole entry, looked up) above
Target sequence in this assay (P40337 whole entry, looked up): as the sequence (P40337 whole entry, looked up) above

[7] = GSH reactivity of compound in water/acetonitrile solution assessed as release efficiency at 0.1 mM incubated for 48 hrs by HPLC analysis relative to control; format: physicochemical; settings: buffer, 100 µM
[8] = Stability of compound in PBS buffer pH 7.4 at 0.1 mM incubated upto 48 hrs by HPLC analysis; format: physicochemical; settings: pH 7.4, 48 h, 100 µM
[9] = Stability of compound in mouse plasma at 0.1 mM incubated for 8 hrs by HPLC analysis; format: ADME, cell-free; settings: 100 µM
[10] = target: T1, von Hippel-Lindau disease tumor suppressor/Estrogen receptor; experiment: PROTAC activity at VHL/ER-alpha in human MCF7 cells assessed as ERalpha degradation incubated for 6 hrs by Western blot analysis; format: cell-based; settings: dose 0.5-2 µM
Target sequence in this assay (P03372 whole entry, looked up): as the sequence (P03372 whole entry, looked up) above
Target sequence in this assay (P40337 whole entry, looked up): as the sequence (P40337 whole entry, looked up) above

[11] = target: T1, von Hippel-Lindau disease tumor suppressor/Estrogen receptor; experiment: PROTAC activity at VHL/ER-alpha in human MCF7 cells assessed as ERalpha degradation at 0.5 uM incubated for 6 hrs by Western blot analysis relative to control; format: cell-based
[12] = target: T1, von Hippel-Lindau disease tumor suppressor/Estrogen receptor; experiment: PROTAC activity at VHL/ER-alpha in human MCF7 cells assessed as ERalpha degradation at 10 uM incubated for 4 hrs by Western blot analysis; format: cell-based
[13] = target: T1, von Hippel-Lindau disease tumor suppressor/Estrogen receptor; experiment: PROTAC activity at VHL/ER-alpha in human MCF7 cells assessed as ERalpha degradation at 10 uM incubated for 6 hrs by Western blot analysis; format: cell-based
[14] = target: T1, von Hippel-Lindau disease tumor suppressor/Estrogen receptor; experiment: PROTAC activity at VHL/3 Flag-tagged ER-alpha in HBE cells assessed as ERalpha degradation at 0.5 to 10 uM incubated for 6 hr by western blot analysis; format: cell-based; settings: dose 0.5-10 µM
[15] = target: T1, von Hippel-Lindau disease tumor suppressor/Estrogen receptor; experiment: PROTAC activity at VHL/ER-alpha in human BT-474 cells assessed as ERalpha degradation by Western blot analysis; format: cell-based; settings: TDE = time-dependent effect
[16] = target: T1, von Hippel-Lindau disease tumor suppressor/Estrogen receptor; experiment: PROTAC activity at VHL/ER-alpha in human MCF7 cells assessed as ERalpha degradation level at 10 uM by Western blot analysis; format: cell-based; settings: time 3-6 hrs, TDE = time-dependent effect
[17] = target: T1, von Hippel-Lindau disease tumor suppressor/Estrogen receptor; experiment: PROTAC activity at VHL/ER-alpha in human MCF7 cells assessed as ERalpha degradation level at 10 uM incubated 3 to 6 hrs in the presence of NEM by Western blot analysis; format: cell-based; settings: time 3-6 hrs
[18] = target: T1, von Hippel-Lindau disease tumor suppressor/Estrogen receptor; experiment: PROTAC activity at VHL/3 Flag-tagged ER-alpha in human NCI-H1299 cells assessed as ERalpha degradation incubated for 6 hrs by Western blot analysis; format: cell-based; settings: dose 0.5-10 µM
[19] = target: T1, von Hippel-Lindau disease tumor suppressor/Estrogen receptor; experiment: PROTAC activity at VHL/ER-alpha in human MCF7 cells assessed as ERalpha degradation at 10 uM preincubated for 1 hr with MG132 followed by compound addition and measured after 6 hrs by Western blot analysis; format: cell-based
[20] = target: T1, von Hippel-Lindau disease tumor suppressor/Estrogen receptor; experiment: PROTAC activity at VHL/ER-alpha in human MCF7 cells assessed as ERalpha degradation level at 10 uM pretreated with tamoxifen followed by compound addition and measured after 6 hrs by Western blot analysis; format: cell-based
[21] = target: T1, von Hippel-Lindau disease tumor suppressor/Estrogen receptor; experiment: PROTAC activity at VHL/ER-alpha in human MCF7 cells assessed as ERalpha degradation level at 10 uM pretreated with VHL-L followed by compound addition and measured after 6 hrs by Western blot analysis; format: cell-based
[22] = target: T1, von Hippel-Lindau disease tumor suppressor/Estrogen receptor; experiment: PROTAC activity at VHL/ER-alpha in human VHL knockdown MCF7 cells assessed as ERalpha degradation level at 10 uM incubated for 6 hrs by Western blot analysis; format: cell-based
MCF7 = experiment: Antiproliferative activity against human MCF7 cells assessed as inhibition of cell growth at 10 uM incubated for 9 days by hemocytometer cell counting analysis; format: functional, cell-based; settings: time 9.0 day
BT-474 [23] = experiment: Antiproliferative activity against human BT-474 cells assessed as inhibition of cell growth at 10 uM incubated for 3 days by hemocytometer cell counting analysis; format: functional, cell-based; settings: time 3.0 day
BT-474 [24] = experiment: Antiproliferative activity against human GCLC knockdown BT-474 cells assessed as inhibition of cell growth at 10 uM incubated after 2 days by hemocytometer cell counting analysis; format: functional, cell-based; settings: time 2.0 day
BT-474 [25] = experiment: Antiproliferative activity against human SLC7A11 knockdown BT-474 cells assessed as inhibition of cell growth at 10 uM incubated after 2 days by hemocytometer cell counting analysis; format: functional, cell-based; settings: time 2.0 day

Structure (SMILES): CC/C(=C(\c1ccccc1)c1ccc(OCC(=O)NCCOCCOCC(=O)N[C@H](C(=O)N2C[C@H](O)C[C@H]2C(=O)NCc2ccc(-c3scnc3C)cc2)C(C)(C)C)cc1)c1ccccc1
- DC50 [1]: 56 nM
- Activity ([1]; dose 0.002-2 µM): Dose-Dependent Effect
- Activity [2]: 50%

Structure (SMILES): Cc1ncsc1-c1ccc(CNC(=O)[C@@H]2C[C@@H](O)CN2C(=O)[C@@H](NC(=O)COCCOCCNC(=O)COc2ccc(C(=O)c3c(-c4ccc(O)cc4)sc4cc(O)ccc34)cc2)C(C)(C)C)cc1
- DC50 [1]: 188 nM

Structure (SMILES): CC/C(=C(\c1ccccc1)c1ccc(OCC(=O)NCCOCCOCC(=O)N[C@H](C(=O)N2C[C@H](OS(=O)(=O)c3ccccc3[N+](=O)[O-])C[C@H]2C(=O)NCc2ccc(-c3scnc3C)cc2)C(C)(C)C)cc1)c1ccccc1
- Activity [3]: Active
- Activity [4]: Dose-Dependent Effect
- Activity [5]: Dose-Dependent Effect
- Activity [6]: Dose-Dependent Effect
- Activity [7]: 70%
- Stability [8]: Stable
- Stability [9]: Stable
- Activity [10]: Dose-Dependent Effect
- Activity [11]: 50%
- Activity [12]: Active
- Activity [13]: Active
- Activity [14]: Active
- Activity [15]: Tde
- Activity [16]: Tde
- Activity [17]: inactive
- Activity [18]: Dose-Dependent Effect
- Activity [19]: inactive
- Activity [20]: inactive
- Activity [21]: inactive
- Activity [22]: inactive
- inhibition (MCF7): Active
- inhibition (BT-474 [23]): Active
- inhibition (BT-474 [24]): inactive
- inhibition (BT-474 [25]): inactive
